Test results: patent publication EP1068199B1, “N-ARYLOXYETHYL-INDOLY-ALKYLAMINES FOR THE TREATMENT OF DEPRESSION” (Wyeth, priority 1998, dated 1999)

How the values were obtained:
[1] = target: T1, human 5-HT1A receptor subtype (Homo sapiens, UniProt P08908); test: 5-HT1A receptor binding, [3H]8-OH-DPAT competition on h5-HT1A.CHO cell membranes; conditions: [3H]8-OH-DPAT 1.5 nM
T1 construct: expressed in transfected cells
T1 sequence (P08908 1-422): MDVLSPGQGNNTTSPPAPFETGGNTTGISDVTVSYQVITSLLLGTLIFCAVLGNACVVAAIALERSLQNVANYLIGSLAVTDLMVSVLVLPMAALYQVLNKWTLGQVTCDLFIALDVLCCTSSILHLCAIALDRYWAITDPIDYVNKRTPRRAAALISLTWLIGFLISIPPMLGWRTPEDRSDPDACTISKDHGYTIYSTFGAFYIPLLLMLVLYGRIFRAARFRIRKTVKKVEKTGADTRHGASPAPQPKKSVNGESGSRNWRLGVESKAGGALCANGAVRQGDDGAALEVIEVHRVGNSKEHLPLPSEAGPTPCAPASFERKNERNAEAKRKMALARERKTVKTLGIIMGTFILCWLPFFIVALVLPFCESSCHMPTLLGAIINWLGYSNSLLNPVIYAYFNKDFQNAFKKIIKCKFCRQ
Protocol: A stable Chinese hamster ovary cell line expressing the human 5-HT1A receptor subtype (h5-HT1A.CHO cells) was employed throughout this study. Cells were maintained in DMEM supplemented with 10% fetal calf serum, non-essential amino acids and penicillin/ streptomycin.
Cells were grown to 95-100% confluency as a monolayer before membranes were harvested for binding studies. Cells were gently scraped from the culture plates, transferred to centrifuge tubes, and washed twice by centrifugation (2000 rpm for 10 min., 4°C) in buffer (50 mM Tris; pH 7.5). The resulting pellets were aliquoted and placed at -80°C. On the day of assay, the cells were thawed on ice, and resuspended in buffer. Studies were conducted using [^3H]8-OH-DPAT as the radioligand. The binding assay was performed in 96 well microtiter plates in a final total volume of 250 µL of buffer. […] Non-specific binding was determined in the presence of 10 µM 5HT. Saturation analysis was conducted by using [^3H]8-OH-DPAT at concentrations ranging from 0.3-30 nM. Following a 30 minute incubation at room temperature, the reaction was terminated by the addition of ice cold buffer and rapid filtration using a M-96 Brandel Cell Harvester (Gaithersburg, MD) through a GF/B filter presoaked for 30 minutes in 0.5% polyethyleneimine.

serotonin transporter = target: T2, serotonin transporter (Rattus norvegicus, UniProt P31652); test: Serotonin transporter affinity, 3H-paroxetine binding to frontal cortical membranes; design: species or system male Sprague-Dawley rats; conditions: read-out: ST (Ki, nM,)
T2 construct: frontal cortical membranes prepared from male Sprague-Dawley rats; from tissue; host or cells: rat frontal cortex membranes (male Sprague-Dawley)
T2 sequence (P31652 whole entry): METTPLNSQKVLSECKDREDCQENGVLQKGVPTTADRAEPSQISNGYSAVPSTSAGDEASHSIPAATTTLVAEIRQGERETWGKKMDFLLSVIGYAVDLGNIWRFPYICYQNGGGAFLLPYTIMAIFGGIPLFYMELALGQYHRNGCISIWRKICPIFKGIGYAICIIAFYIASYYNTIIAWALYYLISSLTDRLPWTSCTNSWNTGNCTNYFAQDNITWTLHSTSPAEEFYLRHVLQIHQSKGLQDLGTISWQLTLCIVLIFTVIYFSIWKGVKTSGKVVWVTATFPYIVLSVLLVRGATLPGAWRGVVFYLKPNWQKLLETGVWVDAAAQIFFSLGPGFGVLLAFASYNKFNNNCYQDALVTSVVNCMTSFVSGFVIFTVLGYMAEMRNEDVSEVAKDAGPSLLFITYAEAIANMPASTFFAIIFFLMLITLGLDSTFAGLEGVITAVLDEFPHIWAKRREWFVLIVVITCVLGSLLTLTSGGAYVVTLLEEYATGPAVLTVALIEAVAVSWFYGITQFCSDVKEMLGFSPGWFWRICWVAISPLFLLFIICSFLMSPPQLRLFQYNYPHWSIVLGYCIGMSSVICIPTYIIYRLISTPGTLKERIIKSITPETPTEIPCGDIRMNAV
Protocol: Briefly, frontal cortical membranes prepared from male Sprague-Dawley rats were incubated with ^3H-paroxetine (0.1 nM) for 60 min at 25°C. […] All reactions are terminated by the addition of ice cold Tris buffer followed by rapid filtration using a Tom Tech filtration device to separate bound from free ^3H-paroxetine.

5-HT1A cloned receptor = target: T3, 5-HT1A cloned receptor (Homo sapiens, UniProt P08908); test: [35S]-GTPγS binding assay on 5-HT1A cloned receptor membrane fragments; format: biochemical; conditions: maximum agonist response defined by excess 8-OH-DPAT
T3 construct: expressed in transfected cells
T3 sequence (P08908 1-422): T1 sequence (P08908 1-422)
Protocol: When needed, membranes were rapidly thawed, centrifuged at 40,000 x g for 10 minutes and resuspended at 4 °C for 10 minutes in assay buffer (25 mM HEPES, 3 mM MgCl2, 100 mM NaCI, 1 mM EDTA, 10 uM GDP, 500 mM DTT, pH 8.0). These membranes were then incubated for 30 min at 30 °C with [^35S]GTPgS (1 nM) in the presence of vehicle, test compound (one to eight concentrations), or excess 8-OH-DPAT to define maximum agonist response. All reactions are terminated by the addition of ice cold Tris buffer followed by rapid filtration using a Tom Tech® filtration device to separate bound from free [^35S]GTPgS.

| SMILES | Ki [1] [nM] | Ki (serotonin transporter) [nM] | Emax (5-HT1A cloned receptor) [%] |
| --- | --- | --- | --- |
| S=c1[nH]c2cccc(OCCNCCCc3c[nH]c4ccccc34)c2[nH]1 [Example 3, 4-{2-[3-(1H-Indol-3-yl)-propylamino]-ethoxy}-1,3-dihydrobenzoimidazole-2-thione] | 7.75 | 21 | – |
| O=c1[nH]c2cccc(OCCNCCCc3c[nH]c4ccccc34)c2[nH]1 [Example 2, 4-{2-[3-(1H-Indol-3-yl)-propylamino]-ethoxy}-1,3-dihydrobenzoimidazole-2-one] | 3.17 | 2.09 | 98.5 |
| O=C1Cc2c(OCCNCCCc3c[nH]c4ccccc34)ccc(F)c2N1 [Example 6, 7-Fluoro-4-{2-[3-(1H-indol-3-yl)-propylamino]-ethoxy}-1,3-dihydro-indol-2-one] | 39.1 | 12 | 49.9 |
